Results: PMC11896996, “Emodin mitigates rheumatoid arthritis through direct binding to TNF-α” (Frontiers in Pharmacology, 2025)

Biological target: T1, TNF-α (Homo sapiens, UniProt P01375)
T1 construct: Human TNF-α recombinant protein (Peprotech)
Assay: SPR (Biacore T200, hTNF-α immobilized on CM5); BLI gave KD […]; TNF-α-TNFR1 ELISA IC50 […]
Assay type: binding

T1 sequence (P01375 77-233): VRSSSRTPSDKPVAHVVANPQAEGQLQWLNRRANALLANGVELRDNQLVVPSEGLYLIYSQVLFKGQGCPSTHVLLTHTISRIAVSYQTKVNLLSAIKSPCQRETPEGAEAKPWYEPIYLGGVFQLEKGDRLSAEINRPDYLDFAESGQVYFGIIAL

For `Cc1cc(O)c2c(c1)C(=O)c1cc(O)cc(O)c1C2=O` [emodin, 1,3,8-trihydroxy-6-methylanthraquinone], the Kd was about 26.5 µM.
